Measured values: DBAASP
In brackets after ≈: the same amount, converted by molar mass. Each block holds one compound with its values, some of them ahead of it.

Columns and labels:
Assay in all cases: ≥ marks a high value that may be exact or a test limit, other limits are often not marked, values filed in µg/mL are converted to µM
[1] = system: Staphylococcus aureus NCTC 10788
[2] = system: Candida albicans NCYC 1467
[3] = system: Escherichia coli NCTC 10418
[4] = system: Staphylococcus aureus NCTC 12493
Staphylococcus aureus = system: Staphylococcus aureus
Pseudomonas aeruginosa = system: Pseudomonas aeruginosa
[5] = system: Pseudomonas aeruginosa ATCC 27853
[6] = system: Escherichia coli ATCC 25922
[7] = system: Staphylococcus aureus ATCC 25923
[8] = system: Bordetella bronchiseptica CUN 11844-99
[9] = system: Pseudomonas aeruginosa CUN 4158-02
[10] = system: Candida albicans ATCC 90028
[11] = system: Bacillus subtilis ATCC 23857
[12] = system: Cryptococcus neoformans ATCC 28957
[13] = system: Pseudomonas aeruginosa Z61
[14] = system: Pseudomonas aeruginosa H744
[15] = system: Pseudomonas aeruginosa H547
Escherichia coli UB1005 = system: Escherichia coli UB1005
[16] = system: Salmonella enterica subsp. enterica serovar Typhimurium ATCC 14028s
[17] = system: Pseudomonas aeruginosa K799
[18] = system: Burkholderia cepacia ATCC 25416
[19] = system: Mycobacterium tuberculosis H37Rv
[20] = system: Pseudomonas aeruginosa H187
[21] = system: Pseudomonas aeruginosa H1001

MIC [1]: 8 µM (≈ 20.5 µg/mL) | MIC [2]: 4 µM (≈ 10.2 µg/mL) | MIC [3]: 8 µM (≈ 20.5 µg/mL)
SMILES: CC[C@H](C)[C@H](NC(=O)[C@H](CCCCN)NC(=O)[C@H](CCCCN)NC(=O)[C@H](Cc1c[nH]c2ccccc12)NC(=O)[C@H](CC(C)C)NC(=O)[C@H](C)N)C(=O)N[C@@H](CC(C)C)C(=O)N[C@@H](CCCCN)C(=O)N[C@@H](CC(N)=O)C(=O)N[C@@H](C)C(=O)NCC(=O)N[C@@H](CCCCN)C(=O)N[C@@H](C)C(=O)N[C@@H](C)C(=O)N[C@@H](CC(C)C)C(=O)N[C@@H](CC(N)=O)C(=O)N[C@@H](CCCCN)C(=O)N[C@H](C(=O)N[C@@H](CC(N)=O)C(=O)N[C@@H](CCC(N)=O)C(=O)N[C@H](C(=O)N[C@H](C(=O)N[C@@H](CCC(N)=O)C(N)=O)C(C)C)[C@@H](C)CC)[C@@H](C)CC [ALWKKILKNAGKAALNKINQIVQ]

MIC [1]: 4 µM (≈ 9.12 µg/mL) | MIC [2]: 4 µM (≈ 9.12 µg/mL) | MIC [4]: 4 µM (≈ 9.12 µg/mL) | MIC (Staphylococcus aureus): 8 µM (≈ 18.2 µg/mL) | MIC (Pseudomonas aeruginosa): > 512 µM | MIC [3]: 16 µM (≈ 36.5 µg/mL) | MIC [5]: > 512 µM
SMILES: CC[C@H](C)[C@@H]1NC(=O)[C@@H](NC(=O)[C@H](Cc2ccccc2)NC(=O)[C@H](C)NC(=O)[C@H](CCCCN)NC(=O)[C@H](CCCCN)NC(=O)[C@H](CC(C)C)NC(=O)[C@H](CC(C)C)NC(=O)[C@H](Cc2ccccc2)NC(=O)[C@@H](NC(=O)[C@H](CO)NC(=O)[C@@H]2CCCN2C(=O)[C@@H](NC(=O)[C@@H](NC(=O)[C@@H](N)Cc2ccccc2)[C@@H](C)CC)C(C)C)[C@@H](C)CC)CSSC[C@@H](C(=O)O)NC(=O)[C@H](CCCCN)NC(=O)[C@H](CCCCN)NC(=O)[C@H](CC(C)C)NC(=O)[C@H](C)NC1=O [FIVPSIFLLKKAFCIALKKC]

MIC [6]: 26.1 µM (≈ 64 µg/mL) | MIC [7]: 26.1 µM (≈ 64 µg/mL) | MIC [8]: 6.54 µM (≈ 16 µg/mL) | MIC [9]: 26.1 µM (≈ 64 µg/mL)
SMILES: CC(C)C[C@H](NC(=O)CNC(=O)[C@H](CCCCN)NC(=O)[C@H](Cc1ccccc1)NC(=O)[C@H](CCCCN)NC(=O)[C@H](Cc1c[nH]c2ccccc12)NC(=O)[C@H](CCCN=C(N)N)NC(=O)[C@H](Cc1ccccc1)NC(=O)[C@H](CCCCN)NC(=O)[C@H](CCCCN)NC(=O)[C@H](Cc1ccc(O)cc1)NC(=O)[C@H](CCCN=C(N)N)NC(=O)[C@H](CCCN=C(N)N)NC(=O)CN)C(=O)N[C@@H](Cc1ccccc1)C(=O)N[C@@H](CC(C)C)C(=O)N[C@@H](Cc1ccccc1)C(=O)N[C@@H](CC(C)C)C(=O)NCC(N)=O [GRRYKKFRWKFKGLFLFLG]

MIC [10]: ≥ 128 µM | MIC [11]: ≥ 64 µM | MIC [12]: ≥ 128 µM
SMILES: CC[C@H](C)[C@H](N)C(=O)N[C@H](C(=O)N[C@@H](CC(N)=O)C(=O)N[C@@H](Cc1cnc[nH]1)C(=O)N[C@@H](CC(C)C)C(=O)N[C@H](C(=O)N[C@@H](CCCCN)C(=O)N[C@@H](CC(C)C)C(=O)N[C@@H](Cc1ccccc1)C(=O)N[C@@H](CC(=O)O)C(=O)N[C@@H](CCCCN)C(=O)NCC(=O)N[C@@H](CC(C)C)C(=O)N[C@@H](CC(N)=O)C(=O)N[C@@H](CO)C(=O)N[C@H](C(=O)N[C@H](C(=O)N[C@@H](CC(N)=O)C(=O)N[C@@H](CC(C)C)C(=O)N[C@@H](CCCN=C(N)N)C(N)=O)C(C)C)[C@@H](C)CC)C(C)C)C(C)C [IVNHLVKLFDKGLNSIVNLR]

MIC [13]: 6.63 µM (≈ 19 µg/mL) | MIC [14]: 1.4 µM (≈ 4 µg/mL) | MIC [15]: 11.2 µM (≈ 32 µg/mL) | MIC (Escherichia coli UB1005): 1.75 µM (≈ 5 µg/mL) | MIC [16]: 10.1 µM (≈ 29 µg/mL) | MIC [17]: 11.2 µM (≈ 32 µg/mL) | MIC [18]: 22.3 µM (≈ 64 µg/mL)
SMILES: CC[C@H](C)[C@H](NC(=O)CNC(=O)[C@@H](NC(=O)[C@H](CCCCN)NC(=O)[C@H](CCCCN)NC(=O)[C@H](Cc1ccccc1)NC(=O)[C@H](CC(C)C)NC(=O)[C@@H](N)CCCCN)[C@@H](C)CC)C(=O)NCC(=O)N[C@@H](C)C(=O)N[C@H](C(=O)N[C@@H](CC(C)C)C(=O)N[C@@H](CCCCN)C(=O)N[C@H](C(=O)N[C@@H](CC(C)C)C(=O)N[C@H](C(=O)N[C@H](C(=O)NCC(=O)N[C@@H](CC(C)C)C(=O)N1CCC[C@H]1C(=O)N[C@@H](C)C(=O)N[C@@H](CC(C)C)C(=O)N[C@@H](CCCCN)C(=O)N[C@@H](CC(C)C)C(=O)N[C@H](C(=O)N[C@@H](CC(C)C)C(=O)N[C@@H](CCCCN)C(=O)O)[C@@H](C)O)[C@@H](C)O)[C@@H](C)O)C(C)C)C(C)C [KLFKKIGIGAVLKVLTTGLPALKLTLK]

MIC [19]: ≥ 82.7 µM
SMILES: CSCC[C@H](NC(=O)[C@H](CCC(=O)O)NC(=O)[C@H](CCCN=C(N)N)NC(=O)[C@@H](N)CCCCN)C(=O)N[C@@H](CCCCN)C(=O)N[C@@H](CCCN=C(N)N)C(=O)N1CCC[C@H]1C(=O)NCC(=O)N[C@@H](CCCCN)C(=O)NCC(=O)N[C@@H](CC(N)=O)C(=O)N[C@@H](CCCN=C(N)N)C(=O)N[C@@H](CC(N)=O)C(=O)N[C@@H](CC(N)=O)C(=O)N[C@@H](Cc1c[nH]c2ccccc12)C(=O)N[C@@H](CCCCN)C(=O)N[C@@H](CCCCN)C(=O)N[C@@H](CCC(=O)O)C(=O)N[C@@H](Cc1ccc(O)cc1)C(=O)O [KREMKRPGKGNRNNWKKEY]

MIC (Escherichia coli UB1005): 0.823 µM (≈ 2.4 µg/mL) | MIC [20]: 1.65 µM (≈ 4.8 µg/mL)
SMILES: CC[C@H](C)[C@H](NC(=O)[C@H](CC(C)C)NC(=O)[C@H](C)NC(=O)[C@@H]1CCCN1C(=O)[C@H](CC(C)C)NC(=O)CNC(=O)[C@@H](NC(=O)[C@@H](NC(=O)[C@H](CC(C)C)NC(=O)[C@@H](NC(=O)[C@H](CCCCN)NC(=O)[C@H](CCCCN)NC(=O)[C@@H](NC(=O)[C@H](C)NC(=O)[C@@H](NC(=O)[C@@H](NC(=O)[C@H](CC(C)C)NC(=O)[C@H](CCCCN)NC(=O)[C@H](CCCCN)NC(=O)[C@@H](NC(=O)[C@H](Cc1ccccc1)NC(=O)[C@H](CCC(=O)O)NC(=O)[C@H](CCCCN)NC(=O)[C@H](Cc1c[nH]c2ccccc12)NC(=O)[C@@H](N)CCCCN)[C@@H](C)CC)[C@@H](C)O)[C@@H](C)O)C(C)C)C(C)C)[C@@H](C)O)[C@@H](C)O)C(=O)N[C@@H](CO)C(=O)O [KWKEFIKKLTTAVKKVLTTGLPALIS]

MIC [13]: 1.35 µM (≈ 4 µg/mL) | MIC [14]: 0.676 µM (≈ 2 µg/mL) | MIC [15]: 5.41 µM (≈ 16 µg/mL) | MIC (Escherichia coli UB1005): 0.676 µM (≈ 2 µg/mL) | MIC [16]: 1.69 µM (≈ 5 µg/mL) | MIC [17]: 1.35 µM (≈ 4 µg/mL) | MIC [18]: 21.6 µM (≈ 64 µg/mL)
SMILES: CC[C@H](C)[C@H](NC(=O)[C@H](CC(C)C)NC(=O)[C@H](C)NC(=O)[C@H](CC(C)C)NC(=O)[C@@H]1CCCN1C(=O)[C@H](CCCCN)NC(=O)[C@H](C)NC(=O)[C@@H](NC(=O)[C@@H](NC(=O)[C@@H](NC(=O)[C@@H](NC(=O)[C@H](CCCCN)NC(=O)[C@H](CCCCN)NC(=O)[C@H](C)NC(=O)[C@H](C)NC(=O)[C@H](CO)NC(=O)[C@@H](NC(=O)[C@H](CC(C)C)NC(=O)[C@H](CCCCN)NC(=O)[C@H](CCCCN)NC(=O)[C@@H](NC(=O)[C@H](Cc1ccccc1)NC(=O)[C@H](CO)NC(=O)[C@H](CCCCN)NC(=O)[C@H](Cc1c[nH]c2ccccc12)NC(=O)[C@@H](N)CCCCN)[C@@H](C)CC)[C@@H](C)O)C(C)C)C(C)C)[C@@H](C)O)[C@@H](C)O)C(=O)N[C@@H](CO)C(=O)O [KWKSFIKKLTSAAKKVVTTAKPLALIS]

MIC (Escherichia coli UB1005): 0.343 µM (≈ 1 µg/mL) | MIC [20]: 2.75 µM (≈ 8 µg/mL)
SMILES: CC[C@H](C)[C@H](NC(=O)[C@H](Cc1ccccc1)NC(=O)[C@H](CO)NC(=O)[C@H](CCCCN)NC(=O)[C@H](Cc1c[nH]c2ccccc12)NC(=O)[C@@H](N)CCCCN)C(=O)N[C@@H](CCCCN)C(=O)N[C@@H](CC(N)=O)C(=O)N[C@@H](CC(C)C)C(=O)N[C@@H](CCC(=O)O)C(=O)N[C@@H](CCCCN)C(=O)N[C@H](C(=O)N[C@@H](CC(C)C)C(=O)N[C@@H](CCCCN)C(=O)N1CCC[C@H]1C(=O)NCC(=O)NCC(=O)N[C@@H](CC(C)C)C(=O)N[C@@H](CC(C)C)C(=O)N[C@@H](CO)C(=O)N[C@@H](CC(N)=O)C(=O)N[C@H](C(=O)N[C@H](C(=O)N[C@H](C(=O)N[C@@H](CO)C(=O)N[C@@H](CC(C)C)C(=O)O)[C@@H](C)O)C(C)C)[C@@H](C)CC)C(C)C [KWKSFIKNLEKVLKPGGLLSNIVTSL]

MIC [21]: ≥ 173 µM
SMILES: CC[C@H](C)[C@H](NC(=O)[C@H](C)NC(=O)[C@H](CC(N)=O)NC(=O)[C@H](CCSC)NC(=O)[C@@H]1CCCN1)C(=O)N[C@@H](CCCCN)C(=O)N[C@@H](CC(C)C)C(=O)N[C@@H](CC(C)C)C(=O)N[C@@H](CS)C(=O)N[C@@H](CCCN=C(N)N)C(=O)O [PMNAIKLLCR]
